From DBAASP
Converted amounts (≈) assume the structure as drawn.

Legend:
Test in all cases: ≥ marks a high value that may be exact or a test limit, other limits are often not marked, values filed in µg/mL are converted to µM
[1] = test system: Acinetobacter calcoaceticus Ac11
Bacillus megaterium Bm11 = test system: Bacillus megaterium Bm11
[2] = test system: Bacillus subtilis ATCC 6051
Escherichia coli D21 = test system: Escherichia coli D21
[3] = test system: Micrococcus luteus ATCC 9341
[4] = test system: Pseudomonas aeruginosa ATCC 27853
[5] = test system: Salmonella enterica subsp. enterica serovar Typhimurium LT2
[6] = test system: Corynebacterium glutamicum ATCC 13032
[7] = test system: Escherichia coli ATCC 25922
Escherichia coli HB101 = test system: Escherichia coli HB101
[8] = test system: Staphylococcus aureus ATCC 9144
[9] = test system: Escherichia coli NBRC 14237
[10] = test system: Micrococcus luteus NBRC 12708
[11] = test system: Pseudomonas aeruginosa NBRC 12582
[12] = test system: Staphylococcus aureus NBRC 12732
[13] = test system: Bacillus subtilis IFO 3134
[14] = test system: Escherichia coli IFO 12734
[15] = test system: Pseudomonas aeruginosa IFO 12582
[16] = test system: Staphylococcus aureus IFO 12732
Escherichia coli ML-35 = test system: Escherichia coli ML-35
[17] = test system: Salmonella enterica subsp. enterica serovar Typhimurium ATCC 14028
[18] = test system: Serratia marcescens ATCC 8100
[19] = test system: Staphylococcus aureus ATCC 25923
[20] = test system: Bacillus subtilis KCTC 1918
[21] = test system: Candida albicans TIMM 1768
[22] = test system: Pseudomonas aeruginosa KCTC 1637
[23] = test system: Saccharomyces cerevisiae KCTC 7296
[24] = test system: Salmonella typhimurium KCTC 1926
[25] = test system: Staphylococcus epidermidis KCTC 3096
[26] = test system: Trichosporon beigelii KCTC 7707

CC[C@H](C)[C@H](N)C(=O)N[C@@H](CO)C(=O)N[C@@H](CO)C(=O)N1CCC[C@H]1C(=O)N[C@@H](CC(C)C)C(=O)N[C@@H](Cc1ccccc1)C(=O)N[C@@H](CCCCN)C(=O)N[C@H](C(=O)N[C@@H](CC(C)C)C(=O)N[C@@H](CC(C)C)C(=O)N[C@@H](CO)C(=O)N[C@@H](C)C(=O)N[C@H](C(=O)NCC(=O)N[C@@H](CO)C(=O)N[C@@H](C)C(=O)N[C@@H](CC(C)C)C(=O)N[C@@H](CO)C(=O)N[C@@H](CO)C(=O)N[C@@H](CO)C(=O)NCC(=O)NCC(=O)N[C@@H](CCC(N)=O)C(=O)N[C@@H](CCC(=O)O)C(=O)O)C(C)C)[C@@H](C)O [ISSPLFKTLLSAVGSALSSSGGQE]
MIC [1]: ≥ 100 µM
MIC (Bacillus megaterium Bm11): ≥ 100 µM
MIC [2]: ≥ 100 µM
MIC (Escherichia coli D21): ≥ 100 µM
MIC [3]: ≥ 100 µM
MIC [4]: > 100 µM
MIC [5]: ≥ 100 µM

CC[C@H](C)[C@H](NC(=O)[C@H](CCCN=C(N)N)NC(=O)[C@@H]1CCCN1C(=O)[C@@H]1CCCN1C(=O)[C@H](CC(C)C)NC(=O)[C@H](CCCN=C(N)N)NC(=O)[C@@H]1CCCN1C(=O)[C@@H]1CCCN1C(=O)[C@H](Cc1ccccc1)NC(=O)[C@H](Cc1ccccc1)NC(=O)[C@@H]1CCCN1C(=O)[C@@H]1CCCN1C(=O)[C@@H]1CCCN1C(=O)[C@H](CCCN=C(N)N)NC(=O)[C@@H]1CCCN1C(=O)[C@H](CCCN=C(N)N)NC(=O)[C@@H]1CCCN1C(=O)[C@H](CC(C)C)NC(=O)[C@H](Cc1ccc(O)cc1)NC(=O)[C@@H]1CCCN1C(=O)[C@@H]1CCCN1C(=O)[C@H](CCCN=C(N)N)NC(=O)[C@@H]1CCCN1C(=O)[C@H](CCCN=C(N)N)NC(=O)[C@H](CCCN=C(N)N)NC(=O)[C@@H](N)CCCN=C(N)N)C(=O)O [RRRPRPPYLPRPRPPPFFPPRLPPRI]
MIC [6]: 0.4 µM (≈ 1.29 µg/mL)
MIC [7]: 1.13 µM (≈ 3.65 µg/mL)
MIC (Escherichia coli HB101): 1.13 µM (≈ 3.65 µg/mL)
MIC [4]: 4.42 µM (≈ 14.3 µg/mL)
MIC [8]: ≥ 50 µM

CC[C@H](C)[C@H](NC(=O)CNC(=O)[C@H](C)NC(=O)[C@H](CC(C)C)NC(=O)[C@H](CC(C)C)NC(=O)[C@H](CCCN=C(N)N)NC(=O)[C@@H]1CCCN1C(=O)[C@H](C)NC(=O)[C@H](CC(C)C)NC(=O)[C@H](CCCCN)NC(=O)[C@H](CC(C)C)NC(=O)[C@H](CC(C)C)NC(=O)[C@H](C)N)C(=O)N[C@@H](Cc1ccccc1)C(N)=O [ALLKLAPRLLAGIF]
MIC [9]: 12.5 µM (≈ 18.7 µg/mL)
MIC [10]: ≥ 50 µM
MIC [11]: ≥ 50 µM
MIC [12]: 12.5 µM (≈ 18.7 µg/mL)

CC[C@H](C)[C@H](NC(=O)[C@H](C)NC(=O)[C@@H]1CCCN1C(=O)[C@@H](NC(=O)[C@@H](NC(=O)[C@H](Cc1cnc[nH]1)NC(=O)[C@H](C)NC(=O)[C@H](C)NC(=O)[C@@H](NC(=O)[C@H](CCCCN)NC(=O)[C@H](C)NC(=O)[C@H](CC(C)C)NC(=O)[C@@H](NC(=O)CNC(=O)[C@H](Cc1ccccc1)NC(=O)[C@H](CC(C)C)NC(=O)CN)C(C)C)C(C)C)C(C)C)C(C)C)C(=O)N[C@@H](C)C(=O)N[C@@H](CCC(=O)O)C(N)=O [GLFGVLAKVAAHVVPAIAE]
MIC [13]: ≥ 64 µM
MIC [14]: ≥ 64 µM
MIC [15]: ≥ 64 µM
MIC [16]: ≥ 64 µM

CC[C@H](C)[C@H](NC(=O)[C@H](CCCN=C(N)N)NC(=O)[C@@H](N)CCCN=C(N)N)C(=O)N[C@@H](CCCN=C(N)N)C(=O)N1CCC[C@H]1C(=O)N[C@@H](CCCN=C(N)N)C(=O)N1CCC[C@H]1C(=O)N1CCC[C@H]1C(=O)N[C@@H](CCCN=C(N)N)C(=O)N[C@@H](CC(C)C)C(=O)N1CCC[C@H]1C(=O)N[C@@H](CCCN=C(N)N)C(=O)N1CCC[C@H]1C(=O)O [RRIRPRPPRLPRP]
MIC [7]: > 128 µM
MIC (Escherichia coli HB101): ≥ 90.5 µM
MIC (Escherichia coli ML-35): ≥ 128 µM
MIC [17]: > 128 µM
MIC [18]: ≥ 128 µM
MIC [19]: > 128 µM

CC[C@H](C)[C@H](NC(=O)[C@H](C)NC(=O)[C@@H]1CCCN1C(=O)[C@@H](NC(=O)[C@@H](NC(=O)[C@H](CCCCN)NC(=O)[C@H](C)NC(=O)[C@H](C)NC(=O)[C@@H](NC(=O)[C@H](CCCCN)NC(=O)[C@H](C)NC(=O)[C@H](CC(C)C)NC(=O)[C@@H](NC(=O)CNC(=O)[C@H](Cc1ccccc1)NC(=O)[C@H](CC(C)C)NC(=O)CN)C(C)C)C(C)C)C(C)C)C(C)C)C(=O)N[C@@H](C)C(=O)N[C@@H](CCCCN)C(=O)N[C@@H](Cc1cnc[nH]1)C(=O)N[C@@H](Cc1ccccc1)C(N)=O [GLFGVLAKVAAKVVPAIAKHF]
MIC [13]: 2 µM (≈ 4.27 µg/mL)
MIC [14]: 8 µM (≈ 17.1 µg/mL)
MIC [15]: 16 µM (≈ 34.2 µg/mL)
MIC [16]: 4 µM (≈ 8.54 µg/mL)

CC(C)C[C@H](NC(=O)[C@H](CCCCN)NC(=O)[C@H](CC(C)C)NC(=O)[C@H](CCCCN)NC(=O)[C@H](CC(C)C)NC(=O)[C@@H]1CCCN1C(=O)[C@H](CCCCN)NC(=O)[C@H](CCCCN)NC(=O)[C@H](CC(C)C)NC(=O)[C@H](CC(C)C)NC(=O)[C@H](CCCCN)NC(=O)[C@H](CCCCN)NC(=O)[C@H](Cc1c[nH]c2ccccc12)NC(=O)[C@@H](N)CCCCN)C(N)=O [KWKKLLKKPLKLKL]
MIC [20]: 3.1 µM (≈ 5.47 µg/mL)
MIC [21]: 12.5 µM (≈ 22 µg/mL)
MIC [22]: 3.1 µM (≈ 5.47 µg/mL)
MIC [23]: 12.5 µM (≈ 22 µg/mL)
MIC [24]: 0.2 µM (≈ 0.353 µg/mL)
MIC [25]: 3.1 µM (≈ 5.47 µg/mL)
MIC [26]: 3.1 µM (≈ 5.47 µg/mL)

CC(C)C[C@H](NC(=O)[C@H](CCCCN)NC(=O)[C@H](CCCCN)NC(=O)[C@H](CC(C)C)NC(=O)[C@H](CC(C)C)NC(=O)[C@H](CCCCN)NC(=O)[C@H](CCCCN)NC(=O)[C@H](CC(C)C)NC(=O)[C@H](CC(C)C)NC(=O)[C@@H]1CCCN1C(=O)[C@H](CCCCN)NC(=O)[C@H](CC(C)C)NC(=O)[C@H](CCCCN)NC(=O)[C@H](Cc1c[nH]c2ccccc12)NC(=O)[C@@H](N)CCCCN)C(N)=O [KWKLKPLLKKLLKKL]
MIC [20]: 3.1 µM (≈ 5.82 µg/mL)
MIC [21]: 12.5 µM (≈ 23.5 µg/mL)
MIC [22]: 3.1 µM (≈ 5.82 µg/mL)
MIC [23]: 12.5 µM (≈ 23.5 µg/mL)
MIC [24]: 0.2 µM (≈ 0.375 µg/mL)
MIC [25]: 1.6 µM (≈ 3 µg/mL)
MIC [26]: 1.6 µM (≈ 3 µg/mL)

CC[C@H](C)[C@H](NC(=O)[C@@H]1CCCN1C(=O)[C@H](CCCN=C(N)N)NC(=O)[C@@H]1CCCN1C(=O)CNC(=O)[C@@H]1CCCN1C(=O)[C@H](CCCN=C(N)N)NC(=O)[C@@H]1CCCN1C(=O)[C@H](Cc1ccccc1)NC(=O)[C@@H]1CCCN1C(=O)[C@H](CC(C)C)NC(=O)[C@@H]1CCCN1C(=O)[C@H](CCCN=C(N)N)NC(=O)[C@@H]1CCCN1C(=O)[C@@H](NC(=O)[C@@H]1CCCN1C(=O)[C@H](CCCN=C(N)N)NC(=O)[C@@H]1CCCN1C(=O)CNC(=O)[C@@H]1CCCN1C(=O)[C@H](CCCN=C(N)N)NC(=O)[C@@H]1CCCN1C(=O)[C@H](Cc1ccccc1)NC(=O)[C@@H]1CCCN1C(=O)[C@H](CC(C)C)NC(=O)[C@@H]1CCCN1C(=O)[C@H](CCCN=C(N)N)NC(=O)[C@@H]1CCCN1)[C@@H](C)CC)C(=O)O [PRPLPFPRPGPRPIPRPLPFPRPGPRPI]
MIC [7]: > 128 µM
MIC (Escherichia coli ML-35): ≥ 128 µM
MIC [17]: > 128 µM
MIC [18]: ≥ 128 µM
MIC [19]: > 128 µM
